From PubChem BioAssay (NCI) come the findings set out here.

Among the test systems are TK-10 renal; DU-145 prostate; NCI-H23 lung; MDA-MB-231 breast; SW-620 colon; COLO 205 colon; SK-MEL-28 melanoma; CCRF-CEM leukemia; SF-539 CNS; MALME-3M melanoma.
Common to all, as to assay: NCI anticancer screen, dose series, 48 h

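Grown in 96-well plates, cells were treated for 48 hours with each compound at five concentrations. Insufficient inhibition: endpoint recorded as highest concentration tested. At the GI50, growth is halved. TGI is the concentration that stops growth completely.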

As to `Fc1ccc(-c2ncn(C3CCNCC3)c2-c2ccnc(Oc3ccc(Oc4ccccc4)cc3)n2)cc1`, the GI50 with TK-10 renal is 4.35 µM; with DU-145 prostate, 4.2 µM; with NCI-H23 lung it was 4.08 µM; in the experiment with MDA-MB-231 breast it was 3.71 µM; in the experiment with SW-620 colon it was 3.55 µM; with COLO 205 colon, 2.48 µM. The GI50 was 4.27 µM in the experiment with SK-MEL-28 melanoma, 5.22 µM in the experiment on CCRF-CEM leukemia, 4.2 µM in the experiment on SF-539 CNS and 4.68 µM in the experiment with MALME-3M melanoma. For the same molecule, the TGI was determined as 7.98 µM with TK-10 renal; 7.75 µM in the experiment with DU-145 prostate; 7.9 µM in the experiment with NCI-H23 lung; 7.17 µM in the experiment with MDA-MB-231 breast; 7.06 µM with SW-620 colon; 6.23 µM in the experiment with COLO 205 colon. Moreover, the TGI was 7.82 µM in the experiment with SK-MEL-28 melanoma, 10.3 µM with CCRF-CEM leukemia, 7.92 µM with SF-539 CNS and 8.95 µM in the experiment on MALME-3M melanoma.

With `O=C(Nc1ccc(Oc2cccc(Cl)c2)c(Cl)c1)c1cccnc1`, the GI50 in the experiment on TK-10 renal was 3.16 µM; with DU-145 prostate, 2.15 µM; in the experiment with NCI-H23 lung it was 3.3 µM; with MDA-MB-231 breast it was 6.25 µM; with SW-620 colon it was 1.21 µM; with COLO 205 colon, 1.39 µM. Besides, the GI50 with SK-MEL-28 melanoma is 7.2 µM; in the experiment with CCRF-CEM leukemia, 1.89 µM; in the experiment with SF-539 CNS it was 1.49 µM; in the experiment with MALME-3M melanoma, 3.16 µM. In addition, the TGI in the experiment on TK-10 renal was 40.1 µM; with DU-145 prostate, 36 µM; in the experiment with NCI-H23 lung, above 50 µM; with MDA-MB-231 breast, 46 µM; in the experiment with SW-620 colon it was above 50 µM; in the experiment on COLO 205 colon, 8.1 µM. For the same molecule, the TGI in the experiment on SK-MEL-28 melanoma was above 50 µM; with CCRF-CEM leukemia, above 50 µM; in the experiment on SF-539 CNS, 7.54 µM; in the experiment with MALME-3M melanoma, 32.8 µM.

On to `Cn1cc(C2=C(c3cn(C)c4cc(Cl)ccc34)C(=O)NC2=O)c2ccccc21`, for which the GI50 in the experiment on TK-10 renal was 3.81 µM; with DU-145 prostate, 0.119 µM; in the experiment on NCI-H23 lung, 0.106 µM; in the experiment on MDA-MB-231 breast, 0.125 µM; with SW-620 colon it was 0.1 µM; with COLO 205 colon, 0.07 µM. Also, the GI50 in the experiment with SK-MEL-28 melanoma was 3.59 µM; in the experiment with CCRF-CEM leukemia it was 0.093 µM; in the experiment with SF-539 CNS, 0.0556 µM; in the experiment with MALME-3M melanoma, 0.0878 µM. For the same molecule, the TGI is above 25 µM with TK-10 renal; 9.1 µM in the experiment on NCI-H23 lung; above 5.58 µM in the experiment with MDA-MB-231 breast; above 25 µM in the experiment on SW-620 colon; 0.18 µM in the experiment with COLO 205 colon; above 25 µM with SK-MEL-28 melanoma. Further, the TGI in the experiment with CCRF-CEM leukemia is above 25 µM; in the experiment with SF-539 CNS, 0.141 µM; with MALME-3M melanoma it was 6.99 µM.

As for `Nc1ccc(Sc2ccc3c4c2cccc4c(=O)n2c4ccccc4nc32)cc1`, the GI50 was 3.8 µM with DU-145 prostate; 5.03 µM in the experiment with NCI-H23 lung; 5.31 µM in the experiment on MDA-MB-231 breast; 5.16 µM in the experiment with SW-620 colon; 7.24 µM in the experiment with COLO 205 colon; 12.8 µM in the experiment on SK-MEL-28 melanoma. The GI50 with CCRF-CEM leukemia was 2.35 µM; in the experiment on SF-539 CNS, 3.11 µM; with MALME-3M melanoma, 3.12 µM. The TGI in the experiment on DU-145 prostate is 14.1 µM; in the experiment on NCI-H23 lung, above 100 µM; in the experiment on MDA-MB-231 breast, 30 µM; with SW-620 colon, above 100 µM; in the experiment on COLO 205 colon, 27.2 µM; in the experiment with SK-MEL-28 melanoma it was 35.3 µM. Moreover, the TGI in the experiment with CCRF-CEM leukemia was above 100 µM; in the experiment with SF-539 CNS it was 15.6 µM; in the experiment with MALME-3M melanoma it was 16.9 µM.

As for `O=C(O)c1ccccc1/C=C1/Nc2ccccc2C1=O`, the TGI in the experiment with TK-10 renal, in the experiment with DU-145 prostate, with NCI-H23 lung, in the experiment on MDA-MB-231 breast, with SW-620 colon and with COLO 205 colon was above 100 µM in each case. The TGI in the experiment on SK-MEL-28 melanoma, with CCRF-CEM leukemia, in the experiment on SF-539 CNS and with MALME-3M melanoma was above 100 µM throughout.

On to `CCN1CCN(c2nc(NNC(=O)c3cccc(OC)c3)nc(N3CCN(C(c4ccccc4)c4ccccc4)CC3)n2)CC1`, for which the GI50 in the experiment on TK-10 renal is 1.78 µM; in the experiment with DU-145 prostate, 2.67 µM; with NCI-H23 lung it was 1.92 µM; in the experiment on MDA-MB-231 breast, 1.87 µM; in the experiment on SW-620 colon it was 1.75 µM; in the experiment with COLO 205 colon, 2.22 µM. Further, the GI50 with SK-MEL-28 melanoma is 1.8 µM; in the experiment with CCRF-CEM leukemia, 2.6 µM; in the experiment with SF-539 CNS it was 1.65 µM; in the experiment on MALME-3M melanoma it was 1.52 µM. Also, the TGI in the experiment on TK-10 renal came to 3.55 µM; in the experiment on DU-145 prostate, 7.29 µM; in the experiment on NCI-H23 lung, 5.03 µM; in the experiment on MDA-MB-231 breast, 3.58 µM; in the experiment with SW-620 colon, 3.45 µM; in the experiment with COLO 205 colon, 5.55 µM. Also, the TGI in the experiment on SK-MEL-28 melanoma is 3.34 µM; in the experiment on CCRF-CEM leukemia it was above 100 µM; with SF-539 CNS it was 3 µM; in the experiment with MALME-3M melanoma, 2.94 µM.

On to `C/C(=C\COc1ccc2ccc(=O)oc2c1)CCC(=O)C(C)(C)O`, for which the TGI is above 100 µM in the experiment with TK-10 renal; above 100 µM in the experiment with DU-145 prostate; above 100 µM in the experiment with NCI-H23 lung; above 100 µM in the experiment on MDA-MB-231 breast; 38.9 µM with SW-620 colon; 44.4 µM in the experiment with COLO 205 colon. Moreover, the TGI in the experiment on SK-MEL-28 melanoma is above 100 µM; in the experiment on CCRF-CEM leukemia it was 46.7 µM; in the experiment on SF-539 CNS, 48.5 µM; with MALME-3M melanoma, above 100 µM.

On to `CC1CCCc2c(CC3CC(=O)NC(=O)C3)nc(N)nc21` (configuration not stated), for which the TGI in the experiment with TK-10 renal, in the experiment with DU-145 prostate, with NCI-H23 lung, in the experiment on MDA-MB-231 breast, in the experiment on SW-620 colon and with COLO 205 colon was above 100 µM throughout. Further, the TGI in the experiment on SK-MEL-28 melanoma, in the experiment on CCRF-CEM leukemia, with SF-539 CNS and in the experiment with MALME-3M melanoma was above 100 µM each time.

Consider `COc1ccc2c(c1)/C(=N/OC(C)=O)c1c-2c(Nc2ccc(/C(C)=N/OC(C)=O)cc2)nc2ccccc12`, for which the GI50 was above 100 µM in the experiment on TK-10 renal; 43.2 µM in the experiment on DU-145 prostate; 35.5 µM in the experiment on NCI-H23 lung; above 100 µM in the experiment on MDA-MB-231 breast; 36.5 µM with SW-620 colon; above 100 µM in the experiment on COLO 205 colon. Moreover, the GI50 was 44.5 µM in the experiment with SK-MEL-28 melanoma, 23.9 µM with CCRF-CEM leukemia, above 100 µM with SF-539 CNS and 56.8 µM in the experiment on MALME-3M melanoma. Further, the TGI in the experiment on TK-10 renal, in the experiment with DU-145 prostate, in the experiment on NCI-H23 lung, in the experiment on MDA-MB-231 breast, with SW-620 colon and in the experiment with COLO 205 colon was above 100 µM each time. Further, the TGI with SK-MEL-28 melanoma is above 100 µM; in the experiment on CCRF-CEM leukemia, 47.4 µM; in the experiment on SF-539 CNS, above 100 µM; with MALME-3M melanoma it was above 100 µM.
